pIC50: −log10 of the molar value. Bounds are passed on as bounds.

Our source for the IC50 values is US6979686B1, “Substituted pyrazoles as p38 kinase inhibitors” (Pharmacia Corporation, priority 2001, dated 2005).

In the assay the target is T1, human p38 kinase alpha (Homo sapiens, UniProt Q16539).
T1 construct: GST (N, cleaved yes); made in house; host or cells: E. coli DH10B
T1 sequence (Q16539 whole entry): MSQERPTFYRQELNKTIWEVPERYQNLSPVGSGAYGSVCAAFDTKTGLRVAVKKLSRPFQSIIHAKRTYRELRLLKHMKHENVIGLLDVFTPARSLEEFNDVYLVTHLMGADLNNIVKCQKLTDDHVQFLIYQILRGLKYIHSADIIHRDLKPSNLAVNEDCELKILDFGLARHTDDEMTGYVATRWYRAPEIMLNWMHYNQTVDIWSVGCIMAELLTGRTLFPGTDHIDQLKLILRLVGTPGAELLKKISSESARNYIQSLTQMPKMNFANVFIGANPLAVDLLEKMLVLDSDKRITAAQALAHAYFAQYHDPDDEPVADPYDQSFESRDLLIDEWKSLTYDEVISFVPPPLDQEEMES
The experiment in a line: p38 kinase in vitro assay, phosphorylation of biotinylated PHAS-I with 32P-ATP. The conditions noted are these: in vitro P38-alpha kinase; read-out: P38 alpha kinase IC50. The assay is classed as biochemical.
Turning to `Cn1cnc(S(=O)(=O)NCCCc2[nH]nc(-c3ccc(F)cc3)c2-c2ccncc2)c1` [Example B-1291], the pIC50 is 7.01.
As for `CN(C)S(=O)(=O)NCCCc1[nH]nc(-c2ccc(F)cc2)c1-c1ccncc1` [Example B-1292], the negative-log IC50 (pIC50) was 8.00.
With `O=S(=O)(NCCCc1[nH]nc(-c2ccc(F)cc2)c1-c1ccncc1)c1ccc(S(=O)(=O)c2ccccc2)s1` [Example B-1293], the pIC50 was 6.51.
Take `CS(=O)(=O)c1ccccc1S(=O)(=O)NCCCc1[nH]nc(-c2ccc(F)cc2)c1-c1ccncc1` [Example B-1294]: the negative logarithm of the IC50 (pIC50) is 7.89.
Under `O=S(=O)(NCCCc1[nH]nc(-c2ccc(F)cc2)c1-c1ccncc1)c1cccc2cnccc12` [Example B-1295] stands 7.10; under `Cc1ccc(S(C)(=O)=O)cc1S(=O)(=O)NCCCc1[nH]nc(-c2ccc(F)cc2)c1-c1ccncc1` [Example B-1296], 7.42; under `NS(=O)(=O)c1ccc(CCNC(=O)NCCCc2[nH]nc(-c3ccc(F)cc3)c2-c2ccncc2)cc1` [Example B-1307], 8.05.
For `COCCNC(=O)NCCCc1[nH]nc(-c2ccc(F)cc2)c1-c1ccncc1` [Example B-1311], the negative-log IC50 (pIC50) is 7.30.
In the case of `O=C(NCCCc1[nH]nc(-c2ccc(F)cc2)c1-c1ccncc1)NCCN1CCCCC1` [Example B-1313], the pIC50 was 7.46.
Take `CN1CCCC1CCNC(=O)NCCCc1[nH]nc(-c2ccc(F)cc2)c1-c1ccncc1` (centres unmarked) [Example B-1315]: the negative-log IC50 (pIC50) was 7.26.
Consider `O=C(NCCCc1[nH]nc(-c2ccc(F)cc2)c1-c1ccncc1)NC1CCN(Cc2ccccc2)CC1` [Example B-1320], for which the negative-log IC50 (pIC50) is 7.33.
Consider `Cc1ccccc1C(=O)NCCCc1[nH]nc(-c2ccc(F)cc2)c1-c1ccncc1` [Example B-1321], for which the pIC50 is 6.33.
With `O=C(NCCCc1[nH]nc(-c2ccc(F)cc2)c1-c1ccncc1)c1ccc(Cl)cc1` [Example B-1322], the negative logarithm of the IC50 (pIC50) was 6.92.
`Cc1ccc(C(=O)NCCCc2[nH]nc(-c3ccc(F)cc3)c2-c2ccncc2)cc1` [Example B-1323]: the pIC50 is 7.89.
For `O=C(NCCCc1[nH]nc(-c2ccc(F)cc2)c1-c1ccncc1)c1cccc(C(F)(F)F)c1` [Example B-1324], the pIC50 is 6.80.
On to `O=C(NCCCc1[nH]nc(-c2ccc(F)cc2)c1-c1ccncc1)c1cc2ccccc2s1` [Example B-1325], for which the negative-log IC50 (pIC50) was 6.57.
With `CC(C)c1cc(C(C)C)c(C(=O)NCCCc2[nH]nc(-c3ccc(F)cc3)c2-c2ccncc2)c(C(C)C)c1` [Example B-1326] the figure was 7.04; with `N#Cc1cccc(C(=O)NCCCc2[nH]nc(-c3ccc(F)cc3)c2-c2ccncc2)c1` [Example B-1328], 7.49.
In the case of `O=C(NCCCc1[nH]nc(-c2ccc(F)cc2)c1-c1ccncc1)c1cccc2ccccc12` [Example B-1329], the pIC50 is 6.18.
`O=C(NCCCc1[nH]nc(-c2ccc(F)cc2)c1-c1ccncc1)c1ccc(F)c(F)c1` [Example B-1330]: the negative logarithm of the IC50 (pIC50) was 7.28.
As for `O=C(NCCCc1[nH]nc(-c2ccc(F)cc2)c1-c1ccncc1)c1cc(F)cc(F)c1` [Example B-1331], the pIC50 was 8.40.
As for `O=C(NCCCc1[nH]nc(-c2ccc(F)cc2)c1-c1ccncc1)c1c(F)ccc(F)c1F` [Example B-1332], the pIC50 is 8.15.
In the case of `O=C(NCCCc1[nH]nc(-c2ccc(F)cc2)c1-c1ccncc1)c1cccc(Cl)c1Cl` [Example B-1333], the pIC50 is 6.35.
In the case of `O=C(NCCCc1[nH]nc(-c2ccc(F)cc2)c1-c1ccncc1)c1cc(C(F)(F)F)ccc1F` [Example B-1335], the pIC50 was 7.01.
As to `O=C(NCCCc1[nH]nc(-c2ccc(F)cc2)c1-c1ccncc1)c1c(F)cc(F)cc1F` [Example B-1336], the pIC50 was 7.14.
In the case of `O=C(NCCCc1[nH]nc(-c2ccc(F)cc2)c1-c1ccncc1)c1ccc(C(F)(F)F)cc1F` [Example B-1337], the pIC50 is 6.40.
Turning to `O=C(NCCCc1[nH]nc(-c2ccc(F)cc2)c1-c1ccncc1)c1c(F)cccc1C(F)(F)F` [Example B-1338], the negative-log IC50 (pIC50) was 6.74.
Under `O=C(NCCCc1[nH]nc(-c2ccc(F)cc2)c1-c1ccncc1)c1cccc(C(F)(F)F)c1F` [Example B-1339] stands 6.92; under `O=C(NCCCc1[nH]nc(-c2ccc(F)cc2)c1-c1ccncc1)c1ccc(F)cc1C(F)(F)F` [Example B-1340], 7.37; under `O=C(NCCCc1[nH]nc(-c2ccc(F)cc2)c1-c1ccncc1)c1ccc(F)c(C(F)(F)F)c1` [Example B-1341], 6.38.
For the compound `O=C(NCCCc1[nH]nc(-c2ccc(F)cc2)c1-c1ccncc1)c1cc(F)cc(C(F)(F)F)c1` [Example B-1342], the negative-log IC50 (pIC50) is 6.60.
With `O=C(NCCCc1[nH]nc(-c2ccc(F)cc2)c1-c1ccncc1)c1ccccc1Cl` [Example B-1343] the figure was 7.19; with `Cc1cccc(C(=O)NCCCc2[nH]nc(-c3ccc(F)cc3)c2-c2ccncc2)c1` [Example B-1344], 7.85.
With `O=C(NCCCc1[nH]nc(-c2ccc(F)cc2)c1-c1ccncc1)c1ccc(Cl)cc1Cl` [Example B-1345] the figure was 6.57; with `O=C(NCCCc1[nH]nc(-c2ccc(F)cc2)c1-c1ccncc1)c1cccc(F)c1` [Example B-1346], 7.37.
As for `O=C(NCCCc1[nH]nc(-c2ccc(F)cc2)c1-c1ccncc1)c1cccc(F)c1F` [Example B-1347], the negative-log IC50 (pIC50) is 7.68.
`O=C(NCCCc1[nH]nc(-c2ccc(F)cc2)c1-c1ccncc1)c1c(Cl)cccc1Cl` [Example B-1348]: the pIC50 is 8.05.
On to `O=C(NCCCc1[nH]nc(-c2ccc(F)cc2)c1-c1ccncc1)c1cc(F)ccc1F` [Example B-1349], for which the negative logarithm of the IC50 (pIC50) is 7.43.
Consider `O=C(NCCCc1[nH]nc(-c2ccc(F)cc2)c1-c1ccncc1)c1cc(F)c(F)cc1F` [Example B-1350], for which the negative logarithm of the IC50 (pIC50) was 7.72.
As to `O=C(NCCCc1[nH]nc(-c2ccc(F)cc2)c1-c1ccncc1)c1ccccc1F` [Example B-1351], the negative logarithm of the IC50 (pIC50) was 7.17.
As for `O=C(NCCCc1[nH]nc(-c2ccc(F)cc2)c1-c1ccncc1)c1c(F)cccc1F` [Example B-1352], the negative logarithm of the IC50 (pIC50) was 7.89.
With `O=C(NCCCc1[nH]nc(-c2ccc(F)cc2)c1-c1ccncc1)c1ccc(F)cc1F` [Example B-1353] the figure was 7.21; with `O=C(NCCCc1[nH]nc(-c2ccc(F)cc2)c1-c1ccncc1)c1cccc(Cl)c1` [Example B-1354], 7.89; with `O=C(NCCCc1[nH]nc(-c2ccc(F)cc2)c1-c1ccncc1)c1ccccc1Br` [Example B-1355], 7.15.
For the compound `O=C(NCCCc1[nH]nc(-c2ccc(F)cc2)c1-c1ccncc1)c1ccc(C(F)(F)F)cc1` [Example B-1356], the negative logarithm of the IC50 (pIC50) was 7.23.
On to `O=C(NCCCc1[nH]nc(-c2ccc(F)cc2)c1-c1ccncc1)c1cccs1` [Example B-1357], for which the negative-log IC50 (pIC50) was 6.74.
As to `Cc1noc(C)c1C(=O)NCCCc1[nH]nc(-c2ccc(F)cc2)c1-c1ccncc1` [Example B-1358], the pIC50 was 6.80.
For the compound `O=C(c1ccccc1I)N1CCC(c2[nH]nc(-c3ccc(F)cc3)c2-c2ccncc2)CC1` [Example B-1359], the negative logarithm of the IC50 (pIC50) was 8.30.
In the case of `CC(C)C(=O)N1CCC(c2[nH]nc(-c3ccc(F)cc3)c2-c2ccncc2)CC1` [Example B-1361], the pIC50 was 7.52.
`C=CCOC(=O)N1CCC(c2[nH]nc(-c3ccc(F)cc3)c2-c2ccncc2)CC1` [Example B-1362]: the pIC50 is 8.52.
Under `O=C(c1cccc(Br)c1)N1CCC(c2[nH]nc(-c3ccc(F)cc3)c2-c2ccncc2)CC1` [Example B-1365] stands 6.77; under `O=C(c1ccno1)N1CCC(c2[nH]nc(-c3ccc(F)cc3)c2-c2ccncc2)CC1` [Example B-1367], over 7.00; under `COc1cccc(C(=O)N2CCC(c3[nH]nc(-c4ccc(F)cc4)c3-c3ccncc3)CC2)c1` [Example B-1369], over 7.00.
With `Cc1ccc(C(=O)N2CCC(c3[nH]nc(-c4ccc(F)cc4)c3-c3ccncc3)CC2)cc1` [Example B-1371], the pIC50 was 7.22.
Under `O=C(c1ccncc1)N1CCC(c2[nH]nc(-c3ccc(F)cc3)c2-c2ccncc2)CC1` [Example B-1373] stands 7.80; under `O=S(=O)(Cc1ccccc1)N1CCC(c2[nH]nc(-c3ccc(F)cc3)c2-c2ccncc2)CC1` [Example B-1374], over 7.00; under `CNC(=O)N1CCC(c2[nH]nc(-c3ccc(F)cc3)c2-c2ccncc2)CC1` [Example B-1378], 7.70.
In the case of `Cc1cccc(C)c1NC(=O)N1CCC(c2[nH]nc(-c3ccc(F)cc3)c2-c2ccncc2)CC1` [Example B-1380], the pIC50 was over 7.00.
With `O=C(c1ccco1)N1CCC(c2[nH]nc(-c3ccc(F)cc3)c2-c2ccncc2)CC1` [Example B-1383] the figure was 8.92; with `O=C(c1ccccc1)N1CCC(c2[nH]nc(-c3ccc(F)cc3)c2-c2ccncc2)CC1` [Example B-1385], over 7.00; with `O=C(c1cccnc1)N1CCC(c2[nH]nc(-c3ccc(F)cc3)c2-c2ccncc2)CC1` [Example B-1387], over 7.00.
Consider `O=C(c1ccc(C(F)(F)F)cc1)N1CCC(c2[nH]nc(-c3ccc(F)cc3)c2-c2ccncc2)CC1` [Example B-1390], for which the pIC50 is over 7.00.
For `COc1ccc(C(=O)N2CCC(c3[nH]nc(-c4ccc(F)cc4)c3-c3ccncc3)CC2)cc1` [Example B-1391], the negative logarithm of the IC50 (pIC50) is 7.80.
With `N#Cc1ccc(C(=O)N2CCC(c3[nH]nc(-c4ccc(F)cc4)c3-c3ccncc3)CC2)cc1` [Example B-1392], the negative-log IC50 (pIC50) was 7.23.
For the compound `O=C(c1cccc(F)c1)N1CCC(c2[nH]nc(-c3ccc(F)cc3)c2-c2ccncc2)CC1` [Example B-1393], the negative logarithm of the IC50 (pIC50) was 5.50.
As for `O=C(c1cccc(Cl)c1)N1CCC(c2[nH]nc(-c3ccc(F)cc3)c2-c2ccncc2)CC1` [Example B-1394], the pIC50 is 6.49.
Take `Cc1cccc(C(=O)N2CCC(c3[nH]nc(-c4ccc(F)cc4)c3-c3ccncc3)CC2)c1` [Example B-1395]: the negative-log IC50 (pIC50) was 5.83.
On to `N#Cc1cccc(C(=O)N2CCC(c3[nH]nc(-c4ccc(F)cc4)c3-c3ccncc3)CC2)c1` [Example B-1396], for which the pIC50 was 5.81.

The pIC50 is the IC50 on a negative log10 scale, so that one unit is a factor of ten.
